Experimental findings from US12552753B2, “Methods and compositions for targeting Tregs using CCR8 inhibitors” (Nanjing Immunophage Biomedical Co., Ltd., priority 2020, dated 2026) are described below.

Where a name gives a salt, the structure may show the parent alone.

CCR8, sequence (P51685 whole entry, the tested form may be a part): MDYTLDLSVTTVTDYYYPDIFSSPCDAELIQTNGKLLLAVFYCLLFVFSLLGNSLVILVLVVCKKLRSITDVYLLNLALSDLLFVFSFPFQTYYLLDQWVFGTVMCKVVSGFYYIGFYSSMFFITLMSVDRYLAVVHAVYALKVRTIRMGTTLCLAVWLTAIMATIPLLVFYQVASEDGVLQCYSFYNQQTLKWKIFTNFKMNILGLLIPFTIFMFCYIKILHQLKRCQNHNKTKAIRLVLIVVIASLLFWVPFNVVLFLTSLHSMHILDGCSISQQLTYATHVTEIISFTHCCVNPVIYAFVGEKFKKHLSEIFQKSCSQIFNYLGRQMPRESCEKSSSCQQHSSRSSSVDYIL

This assay concerns the target CCR8 (Homo sapiens, UniProt P51685). Nature of the assay: Tango assay (Tango-CCR8-Gal4-CHO-K1 cells, CCL1-stimulated, ONE-Glo luminescence). The note with it: Tango Assay IC50, Inhibition of CCR8 Tango cell in vitro.
Take `Cc1ccccc1NC(=O)c1ccc(S(=O)(=O)N[C@H](C)C2CCN(C(=O)OC(C)(C)C)CC2)cc1C` [Compound 112, (R)-tert-butyl 4-(1-(3-methyl-4-(o-tolylcarbamoyl)phenyl-sulfonamido)ethyl)piperi-dine-1-carboxylate]: the half-inhibitory concentration (IC50) (in general, the concentration needed to halve the response being measured) is above 10000 nM. Compound `Cc1ccccc1NC(=O)c1ccc(S(=O)(=O)N[C@H](C)C2CCNCC2)cc1C` [Compound 113A, (R)-2-methyl-4-(N-(1-(piperidin-4-yl)ethyl)sulfamoyl)-N-(o-tolyl)benzamide] returned an IC50 of 388 nM. Compound `CCCC(=O)N1CCC(NS(=O)(=O)c2ccc(Nc3nccc4ccccc34)c3ccccc23)CC1` [Compound 114, N-(1-butyrylpiperidin-4-yl)-4-(isoquinolin-1-ylamino)naphthalene-1-sulfonamide] came in with an IC50 above 10000 nM.

Consider `CCCC(=O)N1CCC(NS(=O)(=O)c2ccc(Nc3ncnc4ccccc34)c3ccccc23)CC1` [Compound 115, N-(1-butyrylpiperidin-4-yl)-4-(quinazolin-4-ylamino)naphthalene-1-sulfonamide], for which inhibition was half-maximal at 1500 nM (IC50).

Turning to `CCCC(=O)N1CCC(NS(=O)(=O)c2ccc(Nc3cc(C)ncn3)c3ccccc23)CC1` [Compound 116, N-(1-butyrylpiperidin-4-yl)-4-((6-methylpyrimidin-4-yl)amino)naphthalene-1-sulfonamide], the IC50 is above 10000 nM.

Compound `CCCC(=O)N1CCC(NS(=O)(=O)c2ccc(Nc3nccc(C)n3)c3ccccc23)CC1` [Compound 117, N-(1-butyrylpiperidin-4-yl)-4-((4-methylpyrimidin-2-yl)amino)naphthalene-1-sulfonamide] showed a concentration for half-maximal inhibition (IC50) of 1650 nM. Consider `CCCC(=O)N1CCC(NS(=O)(=O)c2ccc(N3C(=O)c4ccccc4C3=O)cc2)CC1` [Compound 118, N-(1-butyrylpiperidin-4-yl)-4-(1,3-dioxoisoindolin-2-yl)benzenesulfonamide], for which the half-maximal inhibitory concentration (IC50) was above 10000 nM. Turning to `CCCC(=O)N1CCC(NS(=O)(=O)c2ccc(N)cc2)CC1` [Compound 119, 4-amino-N-(1-butyrylpiperidin-4-yl)benzenesulfonamide], the IC50 is above 10000 nM. Compound `CCCC(=O)N1CCC(NS(=O)(=O)c2ccc(Nc3ncnc4ccccc34)cc2)CC1` [Compound 120, N-(1-butyrylpiperidin-4-yl)-4-(quinazolin-4-ylamino)benzenesulfon-amide] showed an IC50 above 10000 nM.

As for `Cc1cc(S(=O)(=O)N[C@H](C)C2CCNCC2)ccc1N1C(=O)c2ccccc2C1=O` [Compound 122A, (R)-4-(1,3-dioxoisoindolin-2-yl)-3-methyl-N-(1-(piperidin-4-yl)ethyl)benzenesulfon-amide hydrochloride], the half-maximal inhibitory concentration (IC50) was above 10000 nM. In the case of `Cc1ccccc1C(=O)Nc1ccc(S(=N)(=O)NC(C)C2CCCCC2)c2ccccc12` (stereo not drawn) [Compound 123, N-(4-(N-(1-cyclohexylethyl)sulfamimidoyl)naphthalen-1-yl)-2-methylbenzamide], the IC50 worked out at 3.4 nM. This lies in the single-digit nanomolar range. Next, `Cc1ccccc1C(=O)Nc1ccc(S(=O)(=O)NC(C)c2ccccc2N)c2ccccc12` (stereo not drawn) [Compound 124, N-(4-(N-(1-(2-aminophenyl)ethyl)sul-famoyl)naphthalen-1-yl)-2-methylbenzamide]: 832 nM; `CC(=O)Nc1ccccc1C(C)NS(=O)(=O)c1ccc(NC(=O)c2ccccc2C)c2ccccc12` (stereo not drawn) [Compound 125, N-(4-(N-(1-(2-acetamidophenyl)ethyl)sulfamoyl)naphthalen-1-yl)-2-methylbenzamide]: above 10000 nM; `Cc1ccccc1C(=O)Nc1ccc(S(=O)(=O)NC(C)CC2CCNCC2)c2ccccc12` (stereo not drawn) [Compound 126, 2-methyl-N-(4-(N-(1-(piperidin-4-yl)propan-2-yl)sulfamoyl)naphtha-len-1-yl)benzamide]: 133 nM. Then `Cc1ccccc1C(=O)Nc1ccc(S(=O)(=O)NC(C)CC2CCN(C(=O)OC(C)(C)C)CC2)c2ccccc12` (stereo not drawn) [Compound 127, tert-butyl 4-(2-(4-(2-methylbenzamido)naphthalene-1-sulfonamido)propyl) piperidine-1-carboxylate], with 575 nM; and `Cc1ccccc1C(=O)Nc1ccc(S(=O)(=O)NC(C)C=C2CCCCC2)c2ccccc12` (stereo not drawn) [Compound 130, N-(4-(N-(1-cyclohexylidene-propan-2-yl)sulfamoyl)naphtha-len-1-yl)-2-methylbenzamide], with 10 nM; and `Cc1ccccc1C(=O)Nc1ccc(S(=O)(=O)NC(C)C23CCN(CC2)CC3)c2ccccc12` (stereo not drawn) [Compound 131, 2-methyl-N-(4-(N-(1-(quinuclidin-4-yl)ethyl)sulfamoyl)naphthalen-1-yl)benzamide], with 303 nM.

On to `Cc1ccccc1C(=O)Nc1ccc(S(=O)(=O)NC(C)C23CCC(CC2)CC3)c2ccccc12` (stereo not drawn) [Compound 132, N-(4-(N-(1-(bicyclo[2.2.2]octan-1-yl)ethyl)sulfamoyl)naphthalen-1-yl)-2-methylbenzamide], for which the half-maximal inhibitory concentration (IC50) worked out at 3.2 nM. This IC50 lies about 95-fold lower than the previous one. In the case of `CC(NS(=O)(=O)c1ccc2[nH]c(=O)[nH]c(=O)c2c1)C1CC2CCC1CC2` (stereo not drawn) [Compound 133, N-(1-(bicyclo[2.2.2]octan-2-yl)ethyl)-2,4-dioxo-1,2,3,4-tetrahydroquinazoline-6-sulfonamide], the half-maximal inhibitory concentration (IC50) is above 10000 nM. For `CC(NS(=O)(=O)c1ccc2c(c1)C(=O)NCC2)C1CC2CCC1CC2` (stereo not drawn) [Compound 134, N-(1-(bicyclo[2.2.2]octan-2-yl)ethyl)-1-oxo-1,2,3,4-tetrahydroisoquinoline-7-sulfonamide], the 50% inhibitory concentration (IC50) was above 10000 nM. Next, `CC(NS(=O)(=O)c1ccc2c(c1)C(=O)NCCC2)C1CC2CCC1CC2` (stereo not drawn) [Compound 135, N-(1-(bicyclo[2.2.2]octan-2-yl)ethyl)-1-oxo-2,3,4,5-tetrahydro-1H-benzo[c]azepine-8-sulfonamide]: above 10000 nM; `CC(NS(=O)(=O)c1ccc2[nH]c(=O)cnc2c1)C1CC2CCC1CC2` (stereo not drawn) [Compound 136, N-(1-(bicyclo[2.2.2]octan-2-yl)ethyl)-2-oxo-1,2-dihydroquinoxaline-6-sulfonamide]: above 10000 nM; `CC(NS(=O)(=O)c1ccc2c(c1)C(=O)NC2=O)C1CC2CCC1CC2` (stereo not drawn) [Compound 137, N-(1-(bicyclo[2.2.2]octan-2-yl)ethyl)-1,3-dioxoisoindoline-5-sulfonamide]: above 10000 nM. `CC(NS(=O)(=O)c1ccc2cnccc2c1)C1CC2CCC1CC2` (stereo not drawn) [Compound 139, N-(1-(bicyclo[2.2.2]octan-2-yl)ethyl)isoquinoline-6-sulfonamide]: the concentration for half-maximal inhibition (IC50) is above 10000 nM. For the compound `CC(NS(=O)(=O)c1cccc(C(=O)O)c1)C1CCCCC1` (stereo not drawn) [Compound 140, 3-(N-(1-cyclohexylethyl)sul-famoyl)benzoic acid], the concentration for half-maximal inhibition (IC50) was above 10000 nM. As for `CC(NS(=O)(=O)c1ccc(F)c(C(=O)O)c1)C1CCCCC1` (stereo not drawn) [Compound 141, 5-(N-(1-cyclohexylethyl)sul-famoyl)-2-fluorobenzoic acid], the concentration for half-maximal inhibition (IC50) is above 10000 nM. In turn, `Cc1c(C(=O)O)cccc1S(=O)(=O)NC(C)C1CC2CCC1CC2` (stereo not drawn) [Compound 142, 3-(N-(1-(bicyclo[2.2.2]octan-2-yl)ethyl)sulfamoyl)-2-methylbenzoic acid] had a 50% inhibitory concentration (IC50) above 10000 nM. Regarding `Cc1c(C(=O)O)cccc1S(=O)(=O)NC(C)C1CCCCC1` (stereo not drawn) [Compound 143, 3-(N-(1-cyclohexylethyl)sul-famoyl)-2-methylbenzoic acid], the half-maximal inhibitory concentration (IC50) is above 10000 nM. In the case of `CC(NS(=O)(=O)c1ccc2nc(Cc3ccccc3)[nH]c2c1)C1CCCCC1` (stereo not drawn) [Compound 144, 2-benzyl-N-(1-cyclohexylethyl)-1H-benzo[d]imidazole-6-sulfonamide], it took 2100 nM to reach half-maximal inhibition (IC50). In the case of `CC(NS(=O)(=O)c1ccc2nc(Nc3ccccc3)[nH]c2c1)C1CCCCC1` (stereo not drawn) [Compound 145, N-(1-cyclohexylethyl)-2-(phenylamino)-1H-benzo[d]imidazole-6-sulfonamide], the IC50 came out at 870 nM. This IC50 lies about 2.4-fold lower than the previous one. `CC(NS(=O)(=O)c1ccc(-c2[nH]nnc2-c2ccccc2)c2ccccc12)C1CCCCC1` (stereo not drawn) [Compound 148, N-(1-cyclohexylethyl)-4-(4-phenyl-1H-1,2,3-triazol-5-yl)naphthalene-1-sulfonamide] returned a half-inhibitory concentration (IC50) of 613 nM. Then `CC(NS(=O)(=O)c1ccc(-c2cc3ccccc3[nH]2)c2ccccc12)C1CCCCC1` (stereo not drawn) [Compound 149, N-(1-cyclohexylethyl)-4-(1H-indol-2-yl)naphthalene-1-sulfonamide], with above 10000 nM. On to `CC(NS(=O)(=O)c1ccc(-c2nn[nH]n2)c2ccccc12)C1CCCCC1` (stereo not drawn) [Compound 150, N-(1-cyclohexylethyl)-4-(2H-tetrazol-5-yl)naphthalene-1-sulfonamide], for which the half-inhibitory concentration (IC50) is above 10000 nM. In the case of `CC(=O)Nc1ccccc1COc1ccc(S(=O)(=O)NC(C)C2CCCCC2)c2ccccc12` (stereo not drawn) [Compound 151, N-(2-(((4-(N-(1-cyclohexylethyl)sulfamoyl)naphthalen-1-yl)oxy)methyl)phenyl)acetamide], inhibition was half-maximal at 1360 nM (IC50).

On to `CC(NS(=O)(=O)c1cccc(N2CCCC2C(=O)O)c1)C1CCCCC1` (stereo not drawn) [Compound 152, 1-(3-(N-(1-cyclohexylethyl)sulfam-oyl)phenyl)pyrrolidine-2-carboxylic acid], for which the 50% inhibitory concentration (IC50) is above 10000 nM. Next, `CC(NS(=O)(=O)c1cccc(N2CCCCC2C(=O)O)c1)C1CCCCC1` (stereo not drawn) [Compound 153, 1-(3-(N-(1-cyclohexylethyl)sulfam-oyl)phenyl)piperidine-2-carboxylic acid]: above 10000 nM; `CC(NS(=O)(=O)c1cccc(N2CCC(C(=O)O)C2)c1)C1CCCCC1` (stereo not drawn) [Compound 154, 1-(3-(N-(1-cyclohexylethyl)sulfam-oyl)phenyl)pyrrolidine-3-carboxylic acid]: above 10000 nM; `Cc1ccccc1C(=O)Nc1ccc(S(=O)(=O)NC(C)C2CCCN(C(=O)CNC(=O)OC(C)(C)C)C2)c2ccccc12` (stereo not drawn) [Compound 155D, tert-butyl (2-(3-(1-(4-(2-methylbenzamido)naph-thalene-1-sulfonamido)ethyl)piper-idin-1-yl)-2-oxoethyl)carbamate]: above 10000 nM. As for `Cc1ccccc1C(=O)Nc1ccc(S(=O)(=O)NC(C)C2CCCN(C(=O)CN(C)C)C2)c2ccccc12` (stereo not drawn) [Compound 159, N-(4-(N-(1-(1-(2-(dimethylamino)acetyl)piperidin-3-yl)ethyl)sulfamoyl)naph-thalen-1-yl)-2-methylbenzamide], the concentration for half-maximal inhibition (IC50) is above 10000 nM.
